Results reported in US11091414B2, “Complexes of 1-methylcyclopropene with metal coordination polymer networks” (AGROFRESH INC., priority 2014, dated 2021).

Columns and labels:
Type in all cases: physicochemical
[1] = Adsorption or inclusion level of 1-MCP in adsorbents/encapsulants (release in water, headspace GC)
Description: This Example provides specific examples of methods for adsorbing 1-MCP into a MCPN. Adsorption of 1-MCP was carried out using both a modified solid method (method A) and a solution-based method (method B), as disclosed herein. The general protocol in both methods included a dual-vessel system, where 1-MCP was generated in the first vessel, also referred to as the generation vessel, and the adsorption took place in the second vessel, also referred to as the adsorption vessel. Before adsorption, 50 mg of adsorbent was first dried in a vacuum oven at 100° C. overnight and sealed in the adsorption vessel. […]
This Example illustrates some of the differences between the MCPNs of the present disclosure and prior art encapsulants (cyclodextrins). […] The percentage adsorbed or encapsulated was quantified by taking 55 mg of A1 or E4 and mixed with 25 ml of water in 500 ml sealed glass bottles to release 1-MCP.
Headspace sample was collected and injected into gas chromatography using methods described in Mir, “Harvest Maturity, Storage Temperature and 1-MCP Application Frequency Alter Firmness Retention and Chlorophyll Fluorescence of “Redchief Delicious” Apples,” Journal of American society of horticultural science, 2001, 126(5): 618-624). […] The peak area was used to quantify the concentration.

[2] = Release rate of 1-MCP by hydration with water (method C)
Description: This Example illustrates the release rate of 1-MCP from MCPNs and cyclodextrins. […] Encapsulation of sample S4 was carried out using methods A and D. Method C was used for the release of 1-MCP, where about 25 mg of S1 and S4 were hydrated with 25 mL of water in a 500 mL glass bottle under agitation. Headspace samples were withdrawn periodically to quantify the released 1-MCP.

[3] = Stability in water by powder X-ray diffraction; settings: soaked in water 1 hour, 5 hours, 20 hours
[4] = Thermal stability by thermogravimetric analysis (TGA); settings: 10° C./min to 600° C. under nitrogen
Description: This Example illustrates the thermal stability of MCPN. Thermogravimetric analysis (TGA) was conducted to determine the temperature that causes structural change in MCPN. […] TGA data was collected on a TA Q5000 Analyzer with a temperature ramping rate of 10° C./min from room temperature to 600° C. under nitrogen gas flow.

Row | Adsorption or inclusion level ([1]; 1-MCP loaded by method A (solid method)) [%] | Adsorption or inclusion level ([1]; 1-MCP loaded by method D (solution in pH 4.6 buffer, 50 mg S4/mL)) [%] | Time to complete release of 1-MCP ([2]; loaded by method A) | Time to complete release of 1-MCP ([2]; loaded by method D) [min] | % Released ([2]; loaded by method D, 5 min) [%] | % Released ([2]; loaded by method D, 15 min) [%] | % Released ([2]; loaded by method D, 25 min) [%] | % Released ([2]; loaded by method D, 40 min) [%] | % Released ([2]; loaded by method D, 60 min) [%] | Decomposing temperature [4] [°C] | Structure (SMILES) | Change of X-ray pattern / structure after soaking in water [3]
1 | 0.05 | 2.46 | almost instantaneously | ≤ 40 | 39 | 62 | 84 | 100 | 100 | 280 | OC[C@H]1O[C@@H]2O[C@H]3[C@H](O)[C@@H](O)[C@@H](O[C@H]4[C@H](O)[C@@H](O)[C@@H](O[C@H]5[C@H](O)[C@@H](O)[C@@H](O[C@H]6[C@H](O)[C@@H](O)[C@@H](O[C@H]7[C@H](O)[C@@H](O)[C@@H](O[C@H]1[C@H](O)[C@H]2O)O[C@@H]7CO)O[C@@H]6CO)O[C@@H]5CO)O[C@@H]4CO)O[C@@H]3CO [S4, Alpha cyclodextrin] | dramatic structure change after 1 hour soaking in water
2 | – | – | – | – | – | – | – | – | – | 280 | OC[C@H]1O[C@@H]2O[C@H]3[C@H](O)[C@@H](O)[C@@H](O[C@H]4[C@H](O)[C@@H](O)[C@@H](O[C@H]5[C@H](O)[C@@H](O)[C@@H](O[C@H]6[C@H](O)[C@@H](O)[C@@H](O[C@H]7[C@H](O)[C@@H](O)[C@@H](O[C@H]8[C@H](O)[C@@H](O)[C@@H](O[C@H]1[C@H](O)[C@H]2O)O[C@@H]8CO)O[C@@H]7CO)O[C@@H]6CO)O[C@@H]5CO)O[C@@H]4CO)O[C@@H]3CO [C-b, beta cyclodextrin] | –
